Broadly, the IC50 is the point on the concentration scale where inhibition reaches its midpoint.

Assay [1] has as its system Aβ40 in conditioned medium of cells stably expressing Amyloid Precursor Protein (APP). As to the kind of experiment: In vitro BACE cell-based assay (Aβ40 sandwich ELISA). As to conditions: Homo sapiens. The protocol: In Vitro BACE Cell-Based Assay
The cell-based assay measures inhibition or reduction of Aβ40 in conditioned medium of test compound treated cells expressing amyloid precursor protein.
Cells stably expressing Amyloid Precursor Protein (APP) were plated at a density of 40K cells/well in 96 well plates (Costar). The cells were cultivated for 24 hours at 37° C. and 5% CO2 in DMEM supplemented with 10% FBS. The test compounds were then added to cells in 10-point dose response concentrations with the starting concentration being either 100 μM or 10 μM. The compounds were diluted from stock solutions in DMSO and the final DMSO concentration of the test compounds on cells was 0.1%. After 24 h of incubation with the test compounds the supernatant conditioned media was collected and the Aβ 40 levels were determined using a sandwich ELISA. The IC50 of the compound was calculated from the percent of control or percent inhibition of Aβ 40 as a function of the concentration of the test compound.
The sandwich ELISA to detect Aβ 40 was performed in 96 well microtiter plates, which were pre-treated with goat anti-rabbit IgG (Pierce). The capture and detecting antibody pair that were used to detect Aβ 40 from cell supernatants were affinity purified pAb40 (Biosource) and biotinylated 6E10 (Signet Labs Inc.), respectively. The optimal concentration for the pAb40 antibody was 3 μg/ml in Superblock/TBS (Pierce) that was supplemented with 0.05% Tween 20 (Sigma).
Cellular supernatants were incubated with the capture antibody for 3 h at 4° C., followed by 3 wash steps in TBS-tween (0.05%). The detecting antibody incubation was for 2 h at 4° C., again followed by the wash steps as described previously. The final readout of the ELISA is Time-Resolved Fluorescence (counts per minute) using Delfia reagents Streptavidin-Europium and Enhancement solutions (Perkin Elmer) and the Victor 2 multilabel counter (Perkin Elmer).

The target in assay [2] is Beta Secretase enzyme (BACE) (Homo sapiens (Human), UniProt P56817). In words: In vitro enzymatic BACE FRET assay. It is filed as biochemical. As to conditions: read-out: BACE 1 FRET assay IC50. The protocol:
In Vitro Enzymatic BACE FRET (Fluorescence Resonance Energy Transfer) Assay (Enzyme Assay Data in the Example Table I)
The assay buffer used in this screen is 0.05 M acetate, pH 4.2, 10% DMSO final, 100 uM genapol (which is a nonionic detergent, below its Critical Micelle Concentration). […] This assay is effectively started by the addition of FRET substrate (50 nM) and the combination is incubated for one hour. The FRET assay is terminated with by addition of Tris buffer, which raises the pH to neutrality, and the fluorescence is determined. The FRET substrate is a peptide with commercially available fluorophore and quencher, on opposite sides of the BACE cleavage site.

For a further assay, the target named is Cathepsin D (Cat D) (Homo sapiens (Human), UniProt P07339). As to the kind of experiment: In vitro enzymatic Cathepsin D (Cat D) FRET assay. The format is biochemical. As to conditions: read-out: CatD IC50. The method, boiled down:
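CHO-expressed recombinant Cat D cleaves a fluorophore/quencher FRET peptide (20 nM) in 0.05 M citrate pH 3.5, 5 mM CHAPS, 10% DMSO final, over 1 h. Tris addition neutralizes pH to stop the reaction; fluorescence read at excitation 500 nm, emission 580 nm.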

Where [3] appears, read: HEK293, average IC50, HEK cells, read-out: HEK cell assay IC50.
Where [4] appears, read: HEK293, average IC50, HEK cell assay, read-out: HEK cell assay IC50.
Where [5] appears, read: average IC50, BACE enzyme assay.
Setting [6] is: average IC50, cathepsin D enzyme assay.
[7] abbreviates: HEK293, read-out: HEK cell assay IC50.

Where two headings read alike, the source gives them in different places.

Sequence of Beta Secretase enzyme (BACE) (P56817 46-501): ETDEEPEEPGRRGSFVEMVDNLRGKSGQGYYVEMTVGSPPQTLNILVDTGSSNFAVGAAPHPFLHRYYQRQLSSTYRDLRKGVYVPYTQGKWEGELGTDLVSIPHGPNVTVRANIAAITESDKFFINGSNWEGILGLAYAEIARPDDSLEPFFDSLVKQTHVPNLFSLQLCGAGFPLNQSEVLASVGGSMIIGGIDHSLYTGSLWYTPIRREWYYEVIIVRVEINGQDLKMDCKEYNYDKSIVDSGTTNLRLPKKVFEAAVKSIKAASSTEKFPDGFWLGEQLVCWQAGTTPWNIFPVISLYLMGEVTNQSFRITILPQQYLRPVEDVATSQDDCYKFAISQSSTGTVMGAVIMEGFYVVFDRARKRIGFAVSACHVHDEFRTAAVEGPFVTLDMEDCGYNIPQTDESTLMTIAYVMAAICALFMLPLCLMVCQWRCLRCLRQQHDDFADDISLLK
Sequence of Cathepsin D (Cat D) (P07339 65-412, species assumed): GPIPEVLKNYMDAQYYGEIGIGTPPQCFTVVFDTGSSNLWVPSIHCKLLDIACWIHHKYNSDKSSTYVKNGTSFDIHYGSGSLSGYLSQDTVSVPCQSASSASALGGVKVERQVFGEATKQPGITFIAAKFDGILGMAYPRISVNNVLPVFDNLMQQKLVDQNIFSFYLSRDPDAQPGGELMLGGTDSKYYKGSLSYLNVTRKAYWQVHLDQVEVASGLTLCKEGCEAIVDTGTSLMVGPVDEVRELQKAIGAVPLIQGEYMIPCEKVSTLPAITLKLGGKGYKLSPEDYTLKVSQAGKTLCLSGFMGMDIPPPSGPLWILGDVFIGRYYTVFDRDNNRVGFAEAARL

For `C[C@@]1(c2cc(NC(=O)c3ncc(Cl)cc3Cl)cnc2F)C[C@@H](C(F)(F)F)OC(N)=N1` [Example 68, N-(5-((4S,6S)-2-amino-4-methyl-6-(trifluoromethyl)-5,6-dihydro-4H-1,3-oxazin-4-yl)-6-fluoropyridin-3-yl)-3,5-dichloropicolinamide], the concentration for half-maximal inhibition (IC50) is 0.111 µM in assay [1] (setting [3]), 0.0751 µM in assay [2] (average IC50) and > 400 µM at Cathepsin D (Cat D) (average IC50).

`CC(C)n1cc(Cl)c(C(=O)Nc2cnc(F)c([C@]3(C)C[C@@H](C(F)(F)F)OC(N)=N3)c2)n1` [Example 71, N-(5-((4S,6S)-2-amino-4-methyl-6-(trifluoromethyl)-5,6-dihydro-4H-1,3-oxazin-4-yl)-6-fluoropyridin-3-yl)-4-chloro-1-isopropyl-1H-pyrazole-3-carboxamide]: the half-inhibitory concentration (IC50) is 5.14 µM in assay [1] (setting [4]), 38.9 µM in assay [2] (setting [5]) and > 400 µM on Cathepsin D (Cat D) (setting [6]).

In the case of `C[C@@]1(c2cc(NC(=O)c3nn(C(F)F)cc3Cl)cnc2F)C[C@@H](C(F)(F)F)OC(N)=N1` [Example 72, N-(5-((4S,6S)-2-amino-4-methyl-6-(trifluoromethyl)-5,6-dihydro-4H-1,3-oxazin-4-yl)-6-fluoropyridin-3-yl)-4-chloro-1-(difluoromethyl)-1H-pyrazole-3-carboxamide], the IC50 came to 0.031 µM in assay [1] (setting [4]), 0.024 µM in assay [2] (setting [5]) and 844 µM at Cathepsin D (Cat D) (setting [6]).

For the compound `C[C@@]1(c2cc(Nc3ncnc4cc(Cl)cnc34)cnc2F)C[C@@H](C(F)(F)F)OC(N)=N1` [Example 74, (4S,6S)-4-(5-((7-chloropyrido[3,2-d]pyrimidin-4-yl)amino)-2-fluoropyridin-3-yl)-4-methyl-6-(trifluoromethyl)-5,6-dihydro-4H-1,3-oxazin-2-amine], the IC50 in assay [1] (setting [3]) was 0.0376 µM; in assay [2] (average IC50), 0.088 µM; on Cathepsin D (Cat D) (average IC50), > 400 µM.

In the case of `C[C@@]1(c2cc(Nc3ncnc4cc(C#N)cnc34)cnc2F)C[C@@H](C(F)(F)F)OC(N)=N1` [Example 75, 4-((5-((4S,6S)-2-amino-4-methyl-6-(trifluoromethyl)-5,6-dihydro-4H-1,3-oxazin-4-yl)-6-fluoropyridin-3-yl)amino)pyrido[3,2-d]pyrimidine-7-carbonitrile], the half-maximal inhibitory concentration (IC50) was 0.0912 µM in assay [1] (setting [3]), 0.368 µM in assay [2] (average IC50) and > 400 µM on Cathepsin D (Cat D) (average IC50).

For `C[C@@]1(c2cc(Nc3nccc4cc(Cl)cnc34)cnc2F)C[C@@H](C(F)(F)F)OC(N)=N1` [Example 76, (4S,6S)-4-(5-((3-chloro-1,7-naphthyridin-8-yl)amino)-2-fluoropyridin-3-yl)-4-methyl-6-(trifluoromethyl)-5,6-dihydro-4H-1,3-oxazin-2-amine], the IC50 in assay [1] (setting [3]) was 0.042 µM; in assay [2] (average IC50), 0.0329 µM; on Cathepsin D (Cat D) (average IC50) it was > 400 µM.

Regarding `C[C@@]1(c2cc(Nc3nccc4cc(C#N)cnc34)cnc2F)C[C@@H](C(F)(F)F)OC(N)=N1` [Example 77, 8-((5-((4S,6S)-2-amino-4-methyl-6-(trifluoromethyl)-5,6-dihydro-4H-1,3-oxazin-4-yl)-6-fluoropyridin-3-yl)amino)-1,7-naphthyridine-3-carbonitrile], the values for the IC50 (in assay [1] (setting [3]); in assay [2] (average IC50); on Cathepsin D (Cat D) (average IC50)) were 0.0248 µM, 0.0956 µM and > 400 µM, respectively.

As for `C[C@@]1(c2nc(NC(=O)c3ccc(Cl)cn3)ccc2F)C[C@@H](C(F)(F)F)OC(N)=N1` [Example 83, N-(6-((4S,6S)-2-amino-4-methyl-6-(trifluoromethyl)-5,6-dihydro-4H-1,3-oxazin-4-yl)-5-fluoropyridin-2-yl)-5-chloropicolinamide], the values for the IC50 (in assay [1] (setting [3]); in assay [2] (average IC50); at Cathepsin D (Cat D) (average IC50)) were 0.0389 µM, 0.103 µM and > 400 µM, respectively.

For `Cc1cc(OC(F)F)cnc1C(=O)Nc1ccc(F)c([C@]2(C)C[C@@H](C(F)(F)F)OC(N)=N2)n1` [Example 85, N-(6-((4S,6S)-2-amino-4-methyl-6-(trifluoromethyl)-5,6-dihydro-4H-1,3-oxazin-4-yl)-5-fluoropyridin-2-yl)-5-(difluoromethoxy)-3-methylpicolinamide], the figures for the IC50 (in assay [1] (setting [3]); in assay [2] (average IC50); at Cathepsin D (Cat D) (average IC50)) were 0.0295 µM, 0.103 µM and 492 µM, respectively.

On to `C#CCOc1cnc(C(=O)Nc2ccc(F)c([C@]3(C)C[C@@H](C(F)(F)F)OC(N)=N3)n2)cn1` [Example 87, N-(6-((4S,6S)-2-amino-4-methyl-6-(trifluoromethyl)-5,6-dihydro-4H-1,3-oxazin-4-yl)-5-fluoropyridin-2-yl)-5-(prop-2-yn-1-yloxy)pyrazine-2-carboxamide], for which the half-inhibitory concentration (IC50) was found to be 0.0084 µM in assay [1] (setting [3]), 0.0254 µM in assay [2] (average IC50) and 609 µM on Cathepsin D (Cat D) (average IC50).

Turning to `C[C@@]1(c2nc(NC(=O)c3nn(C(F)F)cc3Cl)ccc2F)C[C@@H](C(F)(F)F)OC(N)=N1` [Example 88, N-(6-((4S,6S)-2-amino-4-methyl-6-(trifluoromethyl)-5,6-dihydro-4H-1,3-oxazin-4-yl)-5-fluoropyridin-2-yl)-4-chloro-1-(difluoromethyl)-1H-pyrazole-3-carboxamide], the IC50 is 0.01 µM in assay [1] (setting [4]), 0.032 µM in assay [2] (setting [5]) and 712 µM on Cathepsin D (Cat D) (setting [6]).

For `Cc1cc(Cl)cnc1C(=S)Nc1ccc(F)c([C@]2(CF)C[C@@H](C(F)(F)F)OC(N)=N2)c1` [Example 90, N-(3-((4S,6S)-2-amino-4-(fluoromethyl)-6-(trifluoromethyl)-5,6-dihydro-4H-1,3-oxazin-4-yl)-4-fluorophenyl)-5-chloro-3-methylpyridine-2-carbothioamide], the IC50 in assay [1] (setting [3]) is 0.909 µM; in assay [2] (average IC50), 1.76 µM; on Cathepsin D (Cat D) (average IC50), > 400 µM.

As to `NC1=N[C@](CF)(c2cc(Oc3cnccn3)ccc2F)C[C@@H](C(F)(F)F)O1` [Example 92, (4S,6S)-4-(2-fluoro-5-(pyrazin-2-yloxy)phenyl)-4-(fluoromethyl)-6-(trifluoromethyl)-5,6-dihydro-4H-1,3-oxazin-2-amine], the IC50 in assay [1] (setting [3]) was 1.65 µM; in assay [2] (average IC50), 1.64 µM; at Cathepsin D (Cat D) (average IC50) it was > 400 µM.

For the compound `NC1=N[C@](CF)(c2cc(Oc3ncc(Cl)cc3F)ccc2F)C[C@@H](C(F)(F)F)O1` [Example 95, (4S,6S)-4-(5-((5-chloro-3-fluoropyridin-2-yl)oxy)-2-fluorophenyl)-4-(fluoromethyl)-6-(trifluoromethyl)-5,6-dihydro-4H-1,3-oxazin-2-amine], the concentration for half-maximal inhibition (IC50) in assay [1] (setting [3]) is 2.59 µM; in assay [2] (average IC50), 2.89 µM; on Cathepsin D (Cat D) (average IC50), > 400 µM.

Turning to `NC1=N[C@](CF)(c2cc(Oc3cc(Br)cc(Cl)n3)ccc2F)C[C@@H](C(F)(F)F)O1` [Example 98], the concentration for half-maximal inhibition (IC50) in assay [1] (setting [3]) is 2.9 µM; in assay [2] (average IC50), 1.95 µM; on Cathepsin D (Cat D) (average IC50), > 400 µM.

`NC1=N[C@](CF)(c2cc(Oc3cccc(Cl)n3)ccc2F)C[C@@H](C(F)(F)F)O1` [Example 100, (4S,6S)-4-(5-((6-chloropyridin-2-yl)oxy)-2-fluorophenyl)-4-(fluoromethyl)-6-(trifluoromethyl)-5,6-dihydro-4H-1,3-oxazin-2-amine]: the values for the IC50 (in assay [1] (setting [4]); in assay [2] (setting [5]); on Cathepsin D (Cat D) (setting [6])) were 3.26 µM, 1.57 µM and 1930 µM, respectively.

With `NC1=N[C@](CF)(c2cc(-c3nc4ccc(Cl)cc4o3)ccc2F)C[C@@H](C(F)(F)F)O1` [Example 105, (4S,6S)-4-(5-(6-chlorobenzo[d]oxazol-2-yl)-2-fluorophenyl)-4-(fluoromethyl)-6-(trifluoromethyl)-5,6-dihydro-4H-1,3-oxazin-2-amine], the concentration for half-maximal inhibition (IC50) in assay [1] (setting [7]) was 2.81 µM; in assay [2] (setting [5]), 0.542 µM; at Cathepsin D (Cat D) (setting [6]), > 44.4 µM.

Regarding `N#Cc1cccnc1Oc1ccc(F)c([C@]2(CF)C[C@@H](C(F)(F)F)OC(N)=N2)c1` [Example 107, 2-(3-((4S,6S)-2-amino-4-(fluoromethyl)-6-(trifluoromethyl)-5,6-dihydro-4H-1,3-oxazin-4-yl)-4-fluorophenoxy)nicotinonitrile], the IC50 in assay [1] (setting [7]) is 3.61 µM; in assay [2] (average IC50), 5.87 µM; on Cathepsin D (Cat D) (average IC50) it was 1400 µM.

(Values after US9296734B2 (AMGEN INC., priority 2013, dated 2016).)
